{"source": "patent US10493077B2", "about": "“Fused imidazo-piperidine JAK inhibitor compound” (THERAVANCE BIOPHARMA R&D IP, LLC, priority 2017, dated 2019)", "key": {"JAK1": {"biological_target": "T1, JAK1 (Homo sapiens, UniProt P23458)", "T1 construct": "GST; purchased Life Technologies", "T1 sequence (P23458 whole entry)": "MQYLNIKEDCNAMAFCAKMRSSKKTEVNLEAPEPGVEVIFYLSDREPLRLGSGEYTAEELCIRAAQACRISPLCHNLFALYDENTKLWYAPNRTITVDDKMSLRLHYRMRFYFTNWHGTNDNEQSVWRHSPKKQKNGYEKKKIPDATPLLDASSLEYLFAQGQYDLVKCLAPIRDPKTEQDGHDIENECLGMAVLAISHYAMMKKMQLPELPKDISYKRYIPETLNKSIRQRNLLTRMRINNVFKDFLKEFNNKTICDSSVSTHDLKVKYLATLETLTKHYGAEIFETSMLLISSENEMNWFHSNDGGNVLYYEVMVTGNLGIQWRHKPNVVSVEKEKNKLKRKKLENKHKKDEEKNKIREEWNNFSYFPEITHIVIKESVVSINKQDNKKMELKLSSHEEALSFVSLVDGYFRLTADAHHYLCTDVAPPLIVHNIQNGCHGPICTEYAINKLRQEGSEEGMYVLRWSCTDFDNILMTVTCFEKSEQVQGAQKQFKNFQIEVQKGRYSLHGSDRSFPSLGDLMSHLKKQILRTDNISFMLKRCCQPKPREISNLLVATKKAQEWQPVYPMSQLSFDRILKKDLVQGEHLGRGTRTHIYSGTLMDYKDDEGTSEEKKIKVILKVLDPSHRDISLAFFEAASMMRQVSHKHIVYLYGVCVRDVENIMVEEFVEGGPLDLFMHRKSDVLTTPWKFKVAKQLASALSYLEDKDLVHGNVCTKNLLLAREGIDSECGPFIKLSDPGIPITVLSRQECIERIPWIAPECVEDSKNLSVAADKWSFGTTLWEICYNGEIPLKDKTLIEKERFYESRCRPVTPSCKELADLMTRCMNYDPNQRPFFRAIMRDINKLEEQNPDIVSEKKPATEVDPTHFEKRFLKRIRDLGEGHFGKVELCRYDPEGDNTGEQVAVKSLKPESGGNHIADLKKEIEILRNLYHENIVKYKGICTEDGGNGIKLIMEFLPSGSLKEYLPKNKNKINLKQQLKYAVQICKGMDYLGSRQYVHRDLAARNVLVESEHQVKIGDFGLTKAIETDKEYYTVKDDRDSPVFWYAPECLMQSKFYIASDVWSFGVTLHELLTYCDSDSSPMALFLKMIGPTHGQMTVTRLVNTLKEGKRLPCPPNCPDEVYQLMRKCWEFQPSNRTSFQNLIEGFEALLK", "assay": "LanthaScreen JAK biochemical assay, JAK1", "settings": "read-out: JAK 1 pKi (converted)", "description": "A panel of four LanthaScreen JAK biochemical assays (JAK1, 2, 3 and Tyk2) were carried in a common kinase reaction buffer (50 mM HEPES, pH 7.5, 0.01% Brij-35, 10 mM MgCl2, and 1 mM EGTA). Recombinant GST-tagged JAK enzymes and a GFP-tagged STAT1 peptide substrate were obtained from Life Technologies.\nSerially diluted compound was pre-incubated with each of the four JAK enzymes and the substrate in white 384-well microplates (Corning) at ambient temperature for 1 h. ATP was subsequently added to initiate the kinase reactions in 10 μL total volume, with 1% DMSO. […] The plates were allowed to incubate at ambient temperature for 1 h before being read on the EnVision reader (Perkin Elmer). Emission ratio signals (520 nm/495 nm) were recorded and utilized to calculate the percent inhibition values based on DMSO and background controls.\nFor dose-response analysis, percent inhibition data were plotted vs. compound concentrations, and IC50 values were determined from a 4-parameter robust fit model with the Prism software (GraphPad Software). Results were expressed as pIC50 (negative logarithm of IC50) and subsequently converted to pKi (negative logarithm of dissociation constant, Ki) using the Cheng-Prusoff equation."}, "[1]": {"tested_on": "IFNγ stimulated STAT1 phosphorylation in CD14+ monocytes", "assay": "Cellular JAK potency assay: inhibition of IFNγ-induced pSTAT1 in CD14+ monocytes", "assay_type": "cell-based", "settings": "Homo sapiens, Monocyte, read-out: pIC50, inhibition of IFNγ-induced pSTAT1 (converted)", "description": "The potency of the test compound for inhibition of interferon gamma (IFNγ) stimulated STAT1 phosphorylation was measured in CD14-positive (CD14+) monocytes derived from human whole blood (Stanford Blood Center) using flow cytometry. Because IFNγ signals through JAK, this assay provides a measure of JAK cellular potency.\nMonocytes were identified using a fluorescein isothiocyanate (FITC) conjugated anti-CD14 antibody (Clone RM052, Beckman Coulter), and an Alexa Fluor 647 conjugated anti-pSTAT1 antibody (pY701, Clone 4a, BD Biosciences) was used to detect STAT1 phosphorylation.\nHuman peripheral blood mononuclear cells (PBMC) were isolated from human whole blood of healthy donors using a ficoll gradient. […] Cells were washed twice with FACS buffer, and then resuspended in 1:10 anti-pSTAT1 Alexa Fluor 647:FACS buffer (100 μL) for 30 min at RT in the dark, washed twice in FACS buffer, and analyzed using a LSRII flow cytometer (BD Biosciences).\nTo determine the inhibitory potency of the test compound, the median fluorescent intensity (MFI) of pSTAT1 was measured in CD14+ monocytes. IC50 values were determined from analysis of the inhibition curves of MFI vs compound concentration. Data are expressed as pIC50 (negative decadic logarithm IC50) values."}, "AURKA": {"biological_target": "T2, AURKA (Homo sapiens, UniProt O14965)", "T2 construct": "made in house; host or cells: T7 phage in E. coli (BL21-derived) or HEK-293", "T2 sequence (O14965 whole entry)": "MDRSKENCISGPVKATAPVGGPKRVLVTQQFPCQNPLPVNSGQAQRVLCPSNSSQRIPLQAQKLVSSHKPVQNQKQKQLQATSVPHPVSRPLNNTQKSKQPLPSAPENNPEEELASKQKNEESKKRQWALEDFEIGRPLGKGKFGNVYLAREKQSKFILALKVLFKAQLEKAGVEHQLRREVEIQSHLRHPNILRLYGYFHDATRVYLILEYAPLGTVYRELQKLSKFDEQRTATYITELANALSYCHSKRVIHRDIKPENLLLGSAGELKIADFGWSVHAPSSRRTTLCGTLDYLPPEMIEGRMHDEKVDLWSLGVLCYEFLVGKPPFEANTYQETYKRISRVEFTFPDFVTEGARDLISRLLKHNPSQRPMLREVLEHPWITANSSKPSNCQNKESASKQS", "assay": "Kinome screen, AURKA", "assay_type": "binding", "settings": "screened at 1 μM", "description": "(§1) Kinase-tagged T7 phage strains were grown in parallel in 24-well blocks in an E. coli host derived from the BL21 strain. E. coli were grown to log-phase and infected with T7 phage from a frozen stock (multiplicity of infection=0.4) and incubated with shaking at 32° C. until lysis (90-150 minutes). The lysates were centrifuged (6,000×g) and filtered (0.2 μm) to remove cell debris. The remaining kinases were produced in HEK-293 cells and subsequently tagged with DNA for qPCR detection.\n(§2) Streptavidin-coated magnetic beads were treated with biotinylated small molecule ligands for 30 minutes at room temperature to generate affinity resins for kinase assays. The liganded beads were blocked with excess biotin and washed with blocking buffer (SeaBlock (Pierce), 1% BSA, 0.05% Tween 20, 1 mM DTT) to remove unbound ligand and to reduce non-specific phage binding. […] Test compounds were prepared as 40× stocks in 100% DMSO and directly diluted into the assay. All reactions were performed in polypropylene 384-well plates in a final volume of 0.04 ml. […] The beads were then re-suspended in elution buffer (1×PBS, 0.05% Tween 20, 0.5 μM non-biotinylated affinity ligand) and incubated at room temperature with shaking for 30 minutes. The kinase concentration in the eluates was measured by qPCR."}, "GSK3B": {"biological_target": "T3, GSK3B (Homo sapiens, UniProt P49841)", "T3 construct": "made in house; host or cells: T7 phage in E. coli (BL21-derived) or HEK-293", "T3 sequence (P49841 whole entry)": "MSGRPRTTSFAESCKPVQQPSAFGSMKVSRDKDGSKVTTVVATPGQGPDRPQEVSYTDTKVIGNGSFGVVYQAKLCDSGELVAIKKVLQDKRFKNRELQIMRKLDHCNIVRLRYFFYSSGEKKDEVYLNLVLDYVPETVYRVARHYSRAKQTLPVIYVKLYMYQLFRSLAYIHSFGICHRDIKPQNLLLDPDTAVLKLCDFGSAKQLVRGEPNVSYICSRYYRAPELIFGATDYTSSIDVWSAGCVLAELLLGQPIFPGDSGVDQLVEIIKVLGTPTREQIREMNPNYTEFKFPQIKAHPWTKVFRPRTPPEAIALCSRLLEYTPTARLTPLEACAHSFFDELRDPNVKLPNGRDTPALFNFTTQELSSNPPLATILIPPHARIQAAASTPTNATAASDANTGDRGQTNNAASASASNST", "assay": "Kinome screen, GSK3B", "assay_type": "binding", "settings": "screened at 1 μM", "description": "as §1, §2"}, "KIT": {"biological_target": "T4, KIT (Homo sapiens, UniProt P10721)", "T4 construct": "made in house; host or cells: T7 phage in E. coli (BL21-derived) or HEK-293", "T4 sequence (P10721 26-976)": "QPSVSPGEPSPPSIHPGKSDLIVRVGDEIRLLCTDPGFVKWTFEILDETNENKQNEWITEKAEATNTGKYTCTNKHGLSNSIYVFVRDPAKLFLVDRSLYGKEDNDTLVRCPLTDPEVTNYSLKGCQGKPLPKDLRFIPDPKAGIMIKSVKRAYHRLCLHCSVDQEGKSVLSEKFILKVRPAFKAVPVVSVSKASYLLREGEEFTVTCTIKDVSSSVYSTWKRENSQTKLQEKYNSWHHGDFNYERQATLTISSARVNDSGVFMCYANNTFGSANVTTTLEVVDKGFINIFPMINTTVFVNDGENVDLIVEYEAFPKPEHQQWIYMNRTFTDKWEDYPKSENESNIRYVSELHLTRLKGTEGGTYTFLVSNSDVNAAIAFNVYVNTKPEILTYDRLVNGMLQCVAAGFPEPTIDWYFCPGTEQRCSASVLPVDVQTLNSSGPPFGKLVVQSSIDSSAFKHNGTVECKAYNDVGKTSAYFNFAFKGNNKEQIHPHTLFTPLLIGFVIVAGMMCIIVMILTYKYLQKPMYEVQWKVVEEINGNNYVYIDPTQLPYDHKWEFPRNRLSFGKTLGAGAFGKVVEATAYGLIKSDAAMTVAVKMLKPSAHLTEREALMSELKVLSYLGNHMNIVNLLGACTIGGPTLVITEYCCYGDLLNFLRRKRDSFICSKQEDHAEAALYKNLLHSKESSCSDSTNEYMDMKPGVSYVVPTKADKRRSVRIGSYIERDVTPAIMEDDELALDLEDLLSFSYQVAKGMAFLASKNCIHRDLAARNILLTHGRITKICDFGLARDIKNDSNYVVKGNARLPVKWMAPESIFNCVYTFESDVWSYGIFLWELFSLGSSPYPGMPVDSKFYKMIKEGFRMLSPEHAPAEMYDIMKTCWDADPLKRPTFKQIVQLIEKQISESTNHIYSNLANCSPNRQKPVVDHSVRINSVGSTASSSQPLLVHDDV", "assay": "Kinome screen, KIT", "assay_type": "binding", "settings": "screened at 1 μM", "description": "as §1, §2"}}, "data": [{"smiles": "CCc1cc(O)c(F)cc1-c1cc(F)c2c(-c3nc4c([nH]3)CCN(C(=O)CN3CCOCC3)C4)n[nH]c2c1", "note": "[Compound 1, 1-(2-(6-(2-ethyl-5-fluoro-4-hydroxyphenyl)-4-fluoro-1H-indazol-3-yl)-1,4,6,7-tetrahydro-5H-imidazo[4,5-c]pyridin-5-yl)-2-morpholinoethan-1-one]", "values": [{"measurement": "Ki", "setting": "JAK1", "value": 0.1, "unit": "nM"}, {"measurement": "IC50", "setting": "[1]", "value": "~79.4", "unit": "nM"}, {"measurement": "inhibition at 1 µM", "setting": "AURKA", "value": 11, "unit": "%"}, {"measurement": "inhibition at 1 µM", "setting": "GSK3B", "value": 31, "unit": "%"}, {"measurement": "inhibition at 1 µM", "setting": "KIT", "value": 87, "unit": "%"}]}]}
